According to paper PMC8808171, “Nonselective TRPC channel inhibition and suppression of aminoglycoside-induced premature termination codon readthrough by the small molecule AC1903” (The Journal of Biological Chemistry, 2022):

Columns and labels:
TRPC6:C6 = target: T1, TRPC6:C6 (Homo sapiens, UniProt Q9Y210); test: [Ca2+]i recordings (Fura-2), TRPC6:C6 in HEK 293 cells; format: cell-based
T1 construct: expressed in transfected cells; host or cells: WT HEK 293 (transient)
Description: Based on the findings described above, we wondered whether AC1903—which is typically used as a TRPC5 inhibitor at concentrations of 30–100 μM in cellular assays ([29], [56])—might have limited selectivity for TRPC5 channels and whether its effect on intracellular G418 levels and PTC readthrough might be the consequence of inhibition of other or multiple targets. All well-characterized TRPC channel inhibitors reported to date modulate multiple TRP(C) channels ([34], [35], [36]). […] Because limited data for the selectivity of AC1903 are available in the public domain, we decided to profile AC1903 against a selection of calcium-permeable cation channels by intracellular calcium ([Ca^2+]i) recordings using well-characterized cell lines and TRP channel activators ([46], [57], [58]), and the Ca^2+ indicator Fura-2. In these assays, cells (HEK 293, HEK T-REx, or CHO) overexpressing the relevant ion channel protein and loaded with Fura-2 AM (a cell-permeable precursor of Fura-2) were preincubated with various concentrations of AC1903 or vehicle (DMSO) for 30 min. Then, changes in ratiometric fluorescence (from background) were recorded upon addition of the respective ion channel activator. […]

TRPC4 = target: T2, TRPC4 (Homo sapiens, UniProt Q9UBN4); test: Whole-cell patch-clamp recordings of EA-activated TRPC4 currents in HEK T-REx cells; format: cell-based; conditions: EA 30 nM
T2 construct: expressed in transfected cells; host or cells: HEK T-REx (tetracycline-induced)
Description: B) Representative current–voltage relationship for one (Tet+) HEK T-Rex cell expressing TRPC4, showing current after activation by EA (30 nM) and subsequent inhibition by addition of AC1903 (10 μM). C, quantified data from experiments represented by (A) (scatter plots showing current amplitudes at +100 mV (black circles) or −100 mV (white circles) from three independent experiments; bars represent mean ± SD; n = 3). ∗ indicates statistically significant difference between samples according to paired t test (p < 0.05). EA, (-)-englerin A; TRPC, transient receptor potential canonical.
For electrophysiology experiments, cells were plated at a low density of 20 to 30% onto round coverslips (13 mm diameter or 5 × 5 mm), and TRPC4 expression in HEK T-REx was induced with 1 μg ml^−1 tetracycline 24 h before experimentation. Experiments were carried out at room temperature. […] The patch-clamp currents were recorded using an Axopatch 200B amplifier, digitized by a Digidata 1440 and recorded to a computer using pCLAMP10 (Molecular Devices). The data were filtered at 1 kHz and analyzed offline using Clampfit 10.7 software and Origin 2019b software (OriginLab). […]
Inhibition of G418-induced premature stop codon readthrough […]

T2 sequence (Q9UBN4 1-893 isoform Q9UBN4-2): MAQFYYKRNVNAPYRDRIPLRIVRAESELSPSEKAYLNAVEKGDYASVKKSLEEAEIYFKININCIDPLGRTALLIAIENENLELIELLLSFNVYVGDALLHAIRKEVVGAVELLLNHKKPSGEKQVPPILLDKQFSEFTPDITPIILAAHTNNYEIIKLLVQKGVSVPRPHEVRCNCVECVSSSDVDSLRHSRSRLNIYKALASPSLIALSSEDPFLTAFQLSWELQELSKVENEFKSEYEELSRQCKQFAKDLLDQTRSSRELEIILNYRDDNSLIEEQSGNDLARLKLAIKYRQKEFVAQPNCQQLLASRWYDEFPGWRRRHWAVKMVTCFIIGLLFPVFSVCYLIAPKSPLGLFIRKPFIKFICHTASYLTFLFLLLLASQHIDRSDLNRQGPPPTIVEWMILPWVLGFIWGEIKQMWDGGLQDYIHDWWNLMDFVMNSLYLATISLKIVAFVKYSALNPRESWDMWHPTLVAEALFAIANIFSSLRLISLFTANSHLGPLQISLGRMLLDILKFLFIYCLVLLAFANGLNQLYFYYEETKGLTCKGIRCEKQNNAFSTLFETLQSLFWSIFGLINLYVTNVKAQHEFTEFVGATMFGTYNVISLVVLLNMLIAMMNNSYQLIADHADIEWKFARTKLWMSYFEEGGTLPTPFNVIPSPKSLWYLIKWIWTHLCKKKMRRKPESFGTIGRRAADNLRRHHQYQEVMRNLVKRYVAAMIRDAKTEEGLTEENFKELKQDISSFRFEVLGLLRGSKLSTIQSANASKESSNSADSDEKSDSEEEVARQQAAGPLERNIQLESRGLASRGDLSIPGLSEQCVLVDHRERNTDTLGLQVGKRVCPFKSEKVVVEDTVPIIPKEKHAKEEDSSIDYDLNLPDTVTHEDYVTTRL
T1 sequence (Q9Y210 whole entry): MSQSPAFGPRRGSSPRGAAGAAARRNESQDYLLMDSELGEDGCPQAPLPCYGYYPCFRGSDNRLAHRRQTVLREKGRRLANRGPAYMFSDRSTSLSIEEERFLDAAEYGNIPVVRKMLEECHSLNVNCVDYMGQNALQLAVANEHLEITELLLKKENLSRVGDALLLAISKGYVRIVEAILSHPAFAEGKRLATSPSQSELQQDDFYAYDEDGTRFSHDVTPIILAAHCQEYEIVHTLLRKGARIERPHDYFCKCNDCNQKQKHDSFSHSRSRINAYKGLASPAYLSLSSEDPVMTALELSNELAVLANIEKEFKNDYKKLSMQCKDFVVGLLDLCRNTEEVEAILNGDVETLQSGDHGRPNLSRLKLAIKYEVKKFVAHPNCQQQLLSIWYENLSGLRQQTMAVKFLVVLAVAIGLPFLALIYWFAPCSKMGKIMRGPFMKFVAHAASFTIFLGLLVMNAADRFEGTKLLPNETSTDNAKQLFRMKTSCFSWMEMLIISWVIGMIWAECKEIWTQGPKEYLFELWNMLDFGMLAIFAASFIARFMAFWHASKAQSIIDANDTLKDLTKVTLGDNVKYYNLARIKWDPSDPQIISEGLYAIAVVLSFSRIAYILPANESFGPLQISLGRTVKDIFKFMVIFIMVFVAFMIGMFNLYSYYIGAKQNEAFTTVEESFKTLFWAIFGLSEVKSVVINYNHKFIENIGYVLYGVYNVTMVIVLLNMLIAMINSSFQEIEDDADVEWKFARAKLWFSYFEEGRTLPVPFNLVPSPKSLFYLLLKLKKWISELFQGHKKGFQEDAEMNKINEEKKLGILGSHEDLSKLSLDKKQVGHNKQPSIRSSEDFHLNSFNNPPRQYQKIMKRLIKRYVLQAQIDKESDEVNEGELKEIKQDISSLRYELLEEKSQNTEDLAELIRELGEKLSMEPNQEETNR

c1ccc(Cn2c(NCc3ccco3)nc3ccccc32)cc1 [AC1903]
IC50 (TRPC6:C6; HEK 293, activator OAG (100 μM)): 15 µM | Hill slope (TRPC6:C6; activator OAG): -1.5 | inhibition of EA-activated currents (TRPC4; 10 μM AC1903, whole-cell patch clamp): fully and reversibly inhibited | inhibition of EA-activated TRPC4 currents, cumulative addition (TRPC4; AC1903 0.3–30 μM): concentration-dependent inhibition
